For data set [1], the system named is Mouse P388 leukemia cells. As to the kind of experiment: Evaluation of cytotoxicity: growth inhibition of mouse P388 leukemia cells (MTT method). The data set is classed as cell-based. The note with it: 48 h, 37° C., 2 days, read-out: in vitro IC50 (50% growth inhibitory concentration). On the procedure:
Evaluation of Cytotoxicity:
Mouse P388 leukemia cells were used as cancer cells, and a RPMI-1640 medium containing 5-μM 2-mercaptoethanol and 10% fetal bovine serum was used in the incubation. The above-mentioned cells were inoculated on a 96-well microplate in an amount of 1×10^4 cells/50 μl/well, and an aqueous solution of a test compound (4 μg/ml) was added thereto in an amount of 25 μl/well. The mixture was incubated at 37° C. for 2 days. Then, the number of live cells were counted using the MTT method, and a dose-response curve was then prepared. A 50% growth inhibitory concentration (IC50) given for the test compound was calculated according to the dose-response curve.

Data set [2] is described as follows: Minimum dose which shows death immediately after injection (toxic dose). The data set is classed as in vivo, mice. The note with it: acute death immediately after injection.
A further data set relates to Colon 26. Nature of the data set: Test for the pharmaceutical effect on mice: tumor growth inhibition of subcutaneously implanted Colon 26. The following applies: Mus musculus, Colon 26, iv, 504 h, read-out: in vivo I.R. (tumor growth inhibition rate). On the procedure: Test for the Pharmaceutical Effect on Mice:
Colon 26 which had been cloned subcutaneously in mice was cut with scissors, and implanted subcutaneously in mice by means of a trocar. One week later, the tumors were measured using calipers, and the volumes of the tumors were calculated. The mice were grouped (each group consisting of 3 mice). The test compound was dissolved with dimethylsulfoxide and diluted with 5% by volume Tween 80/saline. A 0.2 ml of the solution was injected intravenously once a day on Day 7, Day 11 and Day 15 after the implantation. On Day 21 after the implantation, the volumes of the tumors were measured. The volume of the tumor and the tumor growth inhibition rate (I.R.) were calculated using the following expressions. [formula]
^a) Administered intravenously once a day on day 7, day 11 and day 15

[3] abbreviates: 10 mg/kg, intravenously once a day on day 7, day 11 and day 15, tumor volume on Day 21.
[4] abbreviates: 40 mg/kg, intravenously once a day on day 7, day 11 and day 15, tumor volume on Day 21.
[5] abbreviates: 80 mg/kg, intravenously once a day on day 7, day 11 and day 15, tumor volume on Day 21.

Values after ≈ are worked out from the molar mass of the structure shown. Counter-ions that a name gives are not always drawn. Like-named read-outs stand apart in the source and are kept apart here.

For the molecule `COc1ccc(/C=C(/C#N)c2cc(OC)c(OC)c(OC)c2)cc1NC(=O)[C@H](C)N` [(E)-3-(3-Amino-4-methoxyphenyl)-2-(3,4,5-trimethoxyphenyl)-prop-2-enenitrile-L-alanineamide Hydrochloride], the IC50 in data set [1] turned out to be 0.5 ng/mL. Moreover, in data set [2], the “Toxic Dose (minimum dose which show death immediately after injection)” value (from here on “Toxic Dose”) was determined as 80 mg/kg. Further, the inhibition in vivo at 20 mg/kg in the data set with Colon 26 (20 mg/kg, intravenously once a day on day 7, day 11 and day 15, tumor volume on Day 21) was 71%.
Turning to `COc1ccc(/C=C(/C#N)c2cc(OC)c(OC)c(OC)c2)cc1NC(=O)[C@@H](N)CC(=O)O` [(E)-3-(3-Amino-4-methoxyphenyl)-2-(3,4,5-trimethoxyphenyl)-prop-2-enenitrile-L-aspartylamide Hydrochloride], the IC50 in data set [1] is 2 ng/mL. The “Toxic Dose” value in data set [2] is given as 40 mg/kg. In addition, the inhibition in vivo at 10 mg/kg with Colon 26 (setting [3]) amounted to 1.7%.
Consider `COc1ccc(/C=C(/C#N)c2cc(OC)c(OC)c(OC)c2)cc1NC(=O)[C@@H](N)CCC(=O)O` [(E)-3-(3-Amino-4-methoxyphenyl)-2-(3,4,5-trimethoxyphenyl)-prop-2-enenitrile-L-glutamylamide Hydrochloride], for which the IC50 in data set [1] is 4 ng/mL. For the same molecule, in data set [2], the “Toxic Dose” value amounted to 80 mg/kg. Further, the inhibition in vivo at 40 mg/kg with Colon 26 (setting [4]) came to 77%.
On to `COc1ccc(/C=C(/C#N)c2cc(OC)c(OC)c(OC)c2)cc1NC(=O)[C@@H](N)CCCCN` [(E)-3-(3-Amino-4-methoxyphenyl)-2-(3,4,5-trimethoxyphenyl)-prop-2-enenitrile-L-lysineamide Dihydrochloride], for which the IC50 in data set [1] is 13 ng/mL. The “Toxic Dose” value in data set [2] is 20 mg/kg. For the same molecule, the inhibition in vivo at 10 mg/kg in the data set with Colon 26 (setting [3]) is 33.8%.
Regarding `COc1ccc(/C=C(/C#N)c2cc(OC)c(OC)c(OC)c2)cc1NC(=O)[C@@H](N)CCCN` [(E)-3-(3-Amino-4-methoxyphenyl)-2-(3,4,5-trimethoxyphenyl)-prop-2-enenitrile-L-ornithineamide Dihydrochloride], the IC50 in data set [1] is 50 ng/mL. The inhibition in vivo at 10 mg/kg in the data set on Colon 26 is 48.9%.
`COc1ccc(/C=C(/C#N)c2cc(OC)c(OC)c(OC)c2)cc1NC(=O)[C@@H](N)Cc1ccccc1` [(E)-3-(3-Amino-4-methoxyphenyl)-2-(3,4,5-trimethoxyphenyl)-prop-2-enenitrile-L-phenylalanineamide Hydrochloride]: in data set [1], the IC50 is 5 ng/mL. For the same molecule, the “Toxic Dose” value in data set [2] amounted to 80 mg/kg. For the same molecule, the inhibition in vivo at 40 mg/kg in the data set with Colon 26 (setting [4]) turned out to be 76.7%.
The like results for `COc1ccc(/C=C(/C#N)c2cc(OC)c(OC)c(OC)c2)cc1NC(=O)[C@@H]1CCCN1` [(E)-3-(3-Amino-4-methoxyphenyl)-2-(3,4,5-trimethoxyphenyl)-prop-2-enenitrile-L-prolineamide Hydrochloride] were, in that order, 200 ng/mL, 40 mg/kg and 68.9%.
Take `COc1ccc(/C=C(/C#N)c2cc(OC)c(OC)c(OC)c2)cc1NC(=O)[C@@H](N)CO` [(E)-3-(3-Amino-4-methoxyphenyl)-2-(3,4,5-trimethoxyphenyl)-prop-2-enenitrile-L-serineamide Hydrochloride]: in data set [1], the IC50 stood at 2 ng/mL. Besides, the inhibition in vivo at 80 mg/kg in the data set on Colon 26 (setting [5]) was 75%.
`COc1ccc(/C=C(/C#N)c2cc(OC)c(OC)c(OC)c2)cc1NC(=O)[C@@H](N)[C@@H](C)O` [(E)-3-(3-Amino-4-methoxyphenyl)-2-(3,4,5-trimethoxyphenyl)-prop-2-enenitrile-L-threonineamide Hydrochloride]: the IC50 in data set [1] worked out at 6 ng/mL. The inhibition in vivo at 40 mg/kg in the data set with Colon 26 (setting [4]) stood at 67%.
Consider `COc1ccc(/C=C(/C#N)c2cc(OC)c(OC)c(OC)c2)cc1NC(=O)CN` [(E)-3-(3-Amino-4-methoxyphenyl)-2-(3,4,5-trimethoxyphenyl)-prop-2-enenitrile-glycineamide Hydrochloride], for which, in data set [1], the IC50 is 3 ng/mL. For the same molecule, the “Toxic Dose” value in data set [2] came to 40 mg/kg. Moreover, in the data set with Colon 26, the inhibition in vivo at 20 mg/kg is 85.7%.
For the molecule `COc1ccc(/C=C\c2cc(OC)c(OC)c(OC)c2)cc1NC(=O)[C@H](C)N` [(Z)-1-(3-Amino-4-methoxyphenyl)-2-(3,4,5-trimethoxyphenyl)-ethene-L-alanineamide], the IC50 in data set [1] was found to be 2 ng/mL (≈ 5.18 nM). Besides, the “Toxic Dose” value in data set [2] came out at 80 mg/kg. In addition, the inhibition in vivo at 40 mg/kg in the data set on Colon 26 was found to be 51.9%.
For `COc1ccc(/C=C\c2cc(OC)c(OC)c(OC)c2)cc1NC(=O)[C@@H](N)CC(C)C` [(Z)-1-(3-Amino-4-methoxyphenyl)-2-(3,4,5-trimethoxyphenyl)-ethene-L-leucineamide], in that order: 6 ng/mL (≈ 14 nM), 40 mg/kg and 50.9%.
For the molecule `COc1ccc(/C=C\c2cc(OC)c(OC)c(OC)c2)cc1NC(=O)[C@@H](N)CO` [(Z)-1-(3-Amino-4-methoxyphenyl)-2-(3,4,5-trimethoxyphenyl)-ethene-L-serineamide], the IC50 in data set [1] is 4 ng/mL (≈ 9.94 nM). Besides, the inhibition in vivo at 80 mg/kg in the data set on Colon 26 (setting [5]) was found to be 72.9%.
`COc1ccc(/C=C\c2cc(OC)c(OC)c(OC)c2)cc1NC(=O)[C@@H](N)[C@@H](C)O` [(Z)-1-(3-Amino-4-methoxyphenyl)-2-(3,4,5-trimethoxyphenyl)-ethene-L-threonineamide]: the IC50 in data set [1] is 6 ng/mL (≈ 14.4 nM). In addition, in the data set on Colon 26, the inhibition in vivo at 80 mg/kg stood at 62.2%.
For the molecule `COc1ccc(/C=C\c2cc(OC)c(OC)c(OC)c2)cc1NC(=O)CN` [(Z)-1-(3-Amino-4-methoxyphenyl)-2-(3,4,5-trimethoxyphenyl)-ethene-glycineamide], in data set [1], the IC50 is 2 ng/mL (≈ 5.37 nM). Besides, the “Toxic Dose” value in data set [2] is 80 mg/kg. The inhibition in vivo at 40 mg/kg in the data set on Colon 26 worked out at 33.3%.

These data come from patent publication US5674906A, “Stilbene compounds and pharmaceutical compositions containing them” (Ajinomoto Co., Inc., priority 1995, dated 1997).
